For 28 compounds, IC50 results are on record in patent publication US20240174662A1, “SMALL MOLECULE INHIBITORS OF SALT INDUCIBLE KINASES” (Janssen Biotech, Inc., priority 2021, published 2024).

The target in this assay is SIK2 (Homo sapiens (Human), UniProt Q9H0K1). The assay can be described thus: SIK2 Enzymatic Assay Version 2 (High ATP). The note with it: 3 mM ATP and 200 μM HDAC5tide final, ADP-Glo Max luminescence. In kind it is biochemical. The method, then:
All steps were performed at room temperature. Compounds were pre-plated onto an assay plate using an Echo acoustic dispenser (Labcyte, […] or […]) at 80 nL per well. Enzyme prepared in assay buffer at 6 nM (2× final concentration) was added at 4 μL per well using the Multidrop Combi (Thermo Fisher-used for all additions in this assay) to the assay plate, spun for 1 min at 1000 rpm (Allegra 6KR Beckman Coulter centrifuge), and incubated with compound for 30 minutes. […] ADP-Glo Max Reagent (prepared and aliquoted as per manufacturer instructions) was then added at 8 μL per well, spun and incubated for 2 hours. ADP-Glo Max Detection (prepared and aliquoted as per manufacturer instructions) was added at 8 μL per well to the assay plate, which was spun and incubated for 1 hour. The plate was then read on the Pherastar (BMG Labtech) using a luminescence read. Gain was set between 2200-2500.

SIK2, sequence (Q9H0K1 whole entry, species assumed): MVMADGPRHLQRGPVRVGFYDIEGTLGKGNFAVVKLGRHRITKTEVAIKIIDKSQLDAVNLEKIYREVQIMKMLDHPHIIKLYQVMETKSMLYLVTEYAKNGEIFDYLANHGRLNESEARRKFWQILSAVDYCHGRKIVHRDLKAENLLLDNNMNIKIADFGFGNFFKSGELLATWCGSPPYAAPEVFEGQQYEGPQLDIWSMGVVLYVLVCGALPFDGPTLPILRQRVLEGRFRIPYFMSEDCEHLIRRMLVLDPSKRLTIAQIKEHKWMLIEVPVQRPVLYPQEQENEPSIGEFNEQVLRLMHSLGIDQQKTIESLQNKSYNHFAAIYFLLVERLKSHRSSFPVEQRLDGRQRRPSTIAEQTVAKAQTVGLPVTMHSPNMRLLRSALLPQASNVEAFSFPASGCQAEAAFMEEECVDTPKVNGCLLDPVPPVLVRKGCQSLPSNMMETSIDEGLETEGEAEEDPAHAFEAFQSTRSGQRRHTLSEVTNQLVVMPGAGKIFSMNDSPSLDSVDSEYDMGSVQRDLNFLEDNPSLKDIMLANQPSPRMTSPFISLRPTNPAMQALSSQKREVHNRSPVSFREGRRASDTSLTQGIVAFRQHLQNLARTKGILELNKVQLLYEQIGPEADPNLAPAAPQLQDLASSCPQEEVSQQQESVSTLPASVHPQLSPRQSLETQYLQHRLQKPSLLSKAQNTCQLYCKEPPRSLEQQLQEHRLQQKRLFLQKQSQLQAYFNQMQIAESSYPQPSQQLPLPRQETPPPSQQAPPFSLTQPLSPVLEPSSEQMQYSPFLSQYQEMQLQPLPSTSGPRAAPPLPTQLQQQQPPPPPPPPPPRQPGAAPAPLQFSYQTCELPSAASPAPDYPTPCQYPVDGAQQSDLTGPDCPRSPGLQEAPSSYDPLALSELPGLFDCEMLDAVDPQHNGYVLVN

A word on the IC50: it is the concentration needed to halve the response being measured. The low end stands for inhibition by little substance, the high end for a need for much substance. As to `Cc1cncc(Nc2cc3cc(-c4c(OC[C@H]5CCN5CCF)cnn4C)ccn3n2)n1` [Example 278, 5-[4-[[(2R)-1-(2-fluoroethyl)azetidin-2-yl]methoxy]-2-methyl-pyrazol-3-yl]-N-(6-methylpyrazin-2-yl)pyrazolo[1,5-a]pyridin-2-amine], inhibition was half-maximal at 1 nM (IC50).

On to `Cc1cc(Nc2cc3cc(-c4c(OC[C@H]5CCN5C)cnn4C)ccn3n2)nc(C(=O)N(C)C)n1` [Example 110, N,N,4-trimethyl-6-[[5-[2-methyl-4-[[(2R)-1-methylazetidin-2-yl]methoxy]pyrazol-3-yl]pyrazolo[1,5-a]pyridin-2-yl]amino]pyrimidine-2-carboxamide], for which the midpoint of inhibition, the IC50, lay at 2.8 nM.

`CN1CC[C@@H]1COc1cnn(C)c1-c1ccn2nc(Nc3cc(C(F)(F)F)ncn3)cc2c1` [Example 123, 5-[2-methyl-4-[[(2R)-1-methylazetidin-2-yl]methoxy]pyrazol-3-yl]-N-[6-(trifluoromethyl)pyrimidin-4-yl]pyrazolo[1,5-a]pyridin-2-amine] had an IC50 of 8.4 nM.

`Cc1cc(Nc2cc3cc(-c4c(CO[C@@H]5CN(C)C[C@H]5C)cnn4C)ccn3n2)nc(C)n1` (racemic) [Example 364, Rac-N-(2,6-dimethylpyrimidin-4-yl)-5-[4-[(1,4-dimethylpyrrolidin-3-yl)oxymethyl]-2-methyl-pyrazol-3-yl]pyrazolo[1,5-a]pyridin-2-amine] gave an IC50 of 2.4 nM.

Take `CCN1CC[C@@H]1COc1cnn(C)c1-c1ccn2nc(Nc3cc(C(F)(F)F)nc(C)n3)cc2c1` [Example 162, 5-[4-[[(2R)-1-ethylazetidin-2-yl]methoxy]-2-methyl-pyrazol-3-yl]-N-[2-methyl-6-(trifluoromethyl)pyrimidin-4-yl]pyrazolo[1,5-a]pyridin-2-amine]: the IC50 is less than 0.847 nM.

The compound `Cn1ncc(OC[C@@H]2CCCN2)c1-c1ccn2nc(NC(=O)C3CC3)cc2c1` [Example 412, N-[5-[2-methyl-4-[[(2S)-pyrrolidin-2-yl]methoxy]pyrazol-3-yl]pyrazolo[1,5-a]pyridin-2-yl]cyclopropanecarboxamide] had an IC50 of 122 nM.

Consider `Cc1onc(OC[C@@H]2CCCNC2)c1-c1ccn2nc(NC(=O)C3CC3)cc2c1` [Example 383, N-[5-[5-methyl-3-[[(3R)-3-piperidyl]methoxy]isoxazol-4-yl]pyrazolo[1,5-a]pyridin-2-yl]cyclopropanecarboxamide], for which 89.9 nM corresponded to half-maximal inhibition (IC50).

`CN1CC[C@H](Oc2cnn(C)c2-c2ccn3nc(Nc4cccnn4)cc3c2)C1` [Example 449, 5-[2-methyl-4-[(3S)-1-methylpyrrolidin-3-yl]oxy-pyrazol-3-yl]-N-pyridazin-3-yl-pyrazolo[1,5-a]pyridin-2-amine] gave an IC50 of 89.5 nM.

With `COc1cc(Nc2cc3cc(-c4c(OC[C@H]5CCN5C)cnn4C)ccn3n2)ncn1` [Example 127, N-(6-methoxypyrimidin-4-yl)-5-[2-methyl-4-[[(2R)-1-methylazetidin-2-yl]methoxy]pyrazol-3-yl]pyrazolo[1,5-a]pyridin-2-amine], the IC50 is 11 nM.

Compound `CN1CC[C@H](Oc2cnn(C)c2-c2ccn3nc(Nc4cccc(C(F)(F)F)n4)cc3c2)C1` [Example 266, 5-[2-methyl-4-[(3S)-1-methylpyrrolidin-3-yl]oxy-pyrazol-3-yl]-N-[6-(trifluoromethyl)-2-pyridyl]pyrazolo[1,5-a]pyridin-2-amine] yielded a half-inhibitory concentration (IC50) of 39.5 nM.

Compound `Cn1ncc(OC[C@H]2CCN2CC(F)(F)F)c1-c1ccn2nc(NC(=O)C3CC3)cc2c1` [Example 315, N-[5-[2-methyl-4-[[(2R)-1-(2,2,2-trifluoroethyl)azetidin-2-yl]methoxy]pyrazol-3-yl]pyrazolo[1,5-a]pyridin-2-yl]cyclopropanecarboxamide] gave an IC50 of 14.1 nM.

On to `CN1CCC[C@@H]1COc1cnn(C)c1-c1ccn2nc(Nc3ccc(C4CC4)nn3)cc2c1` [Example 284, N-(6-cyclopropylpyridazin-3-yl)-5-[2-methyl-4-[[(2R)-1-methylpyrrolidin-2-yl]methoxy]pyrazol-3-yl]pyrazolo[1,5-a]pyridin-2-amine], for which the IC50 came to 16.5 nM.

`Cc1cc(Nc2cc3cc(-c4c(OC[C@@H](O)C56CC(C5)C6)cnn4C)ccn3n2)nc(C)n1` (stereo in doubt) [Example 306, (*S)-1-(3-bicyclo[1.1.1]pentanyl)-2-[5-[2-[(2,6-dimethylpyrimidin-4-yl)amino]pyrazolo[1,5-a]pyridin-5-yl]-1-methyl-pyrazol-4-yl]oxy-ethanol] had an IC50 of 36.1 nM.

As for `CCN1CC[C@@H]1COc1cnn(C)c1-c1ccn2nc(Nc3ncc(C)c(C)n3)cc2c1` [Example 165, N-(4,5-dimethylpyrimidin-2-yl)-5-[4-[[(2R)-1-ethylazetidin-2-yl]methoxy]-2-methyl-pyrazol-3-yl]pyrazolo[1,5-a]pyridin-2-amine], the IC50 was found to be 26.2 nM.

As for `Cc1cc(Nc2cc3cc(-c4c(OC[C@H]5CCN5CCF)cnn4C)ccn3n2)nc(C)n1` [Example 274, N-(2,6-dimethylpyrimidin-4-yl)-5-[4-[[(2R)-1-(2-fluoroethyl)azetidin-2-yl]methoxy]-2-methyl-pyrazol-3-yl]pyrazolo[1,5-a]pyridin-2-amine], the IC50 stood at 0.9 nM.

As for `CCc1cc(Nc2cc3cc(-c4c(OC[C@H]5CCN5C)cnn4C)ccn3n2)nc(C)n1` [Example 145, N-(6-ethyl-2-methyl-pyrimidin-4-yl)-5-[2-methyl-4-[[(2R)-1-methylazetidin-2-yl]methoxy]pyrazol-3-yl]pyrazolo[1,5-a]pyridin-2-amine], the IC50 is less than 0.847 nM.

In the case of `Cc1cc(Nc2cc3cc(-c4c(OC[C@]5(F)CCNC5)cnn4C(F)F)ccn3n2)nc(C)n1` (single isomer, unassigned) [Example 263, (*S)-5-(1-(difluoromethyl)-4-((3-fluoropyrrolidin-3-yl)methoxy)-1H-pyrazol-5-yl)-N-(2,6-dimethylpyrimidin-4-yl)pyrazolo[1,5-a]pyridin-2-amine], half-maximal inhibition (IC50) required 40.2 nM.

In the case of `CN1C[C@@H](COc2cnn(C)c2-c2ccn3nc(NC(=O)C4CC4)cc3c2)[C@H](O)C1` [Example 417, N-[5-[4-[[(3S,4S)-4-hydroxy-1-methyl-pyrrolidin-3-yl]methoxy]-2-methyl-pyrazol-3-yl]pyrazolo[1,5-a]pyridin-2-yl]cyclopropanecarboxamide], the IC50 was 130 nM.

`Cn1ncc(CO[C@H]2CCNC2)c1-c1ccn2nc(NC(=O)C3CC3)cc2c1` [Example 363, N-[5-[2-methyl-4-[[(3S)-pyrrolidin-3-yl]oxymethyl]pyrazol-3-yl]pyrazolo[1,5-a]pyridin-2-yl]cyclopropanecarboxamide] gave an IC50 of 51.9 nM.

As to `Cc1cc(Nc2cc3cc(-c4c(O[C@@H]5CN[C@H](C)C5)noc4C)ccn3n2)nc(C)n1` [Example 90, N-(2,6-dimethylpyrimidin-4-yl)-5-[5-methyl-3-[(3S,5R)-5-methylpyrrolidin-3-yl]oxy-isoxazol-4-yl]pyrazolo[1,5-a]pyridin-2-amine], the IC50 came to 14.4 nM.

For `CN1CC[C@H](Oc2cnn(C)c2-c2ccn3nc(NC(=O)C4CC4)cc3c2)C1` [Example 105, N-[5-[2-methyl-4-[(3S)-1-methylpyrrolidin-3-yl]oxy-pyrazol-3-yl]pyrazolo[1,5-a]pyridin-2-yl]cyclopropanecarboxamide], half-maximal inhibition (IC50) required 43.1 nM.

Regarding `CCN1CC[C@@H]1COc1cnn(C)c1-c1ccn2nc(Nc3cc(C)nc(CC4CC4)n3)cc2c1` [Example 179, N-[2-(cyclopropylmethyl)-6-methyl-pyrimidin-4-yl]-5-[4-[[(2R)-1-ethylazetidin-2-yl]methoxy]-2-methyl-pyrazol-3-yl]pyrazolo[1,5-a]pyridin-2-amine], the IC50 was less than 0.847 nM.

As to `CC(=O)CN1CC[C@@H]1COc1cnn(C)c1-c1ccn2nc(NC(=O)C3CC3)cc2c1` [Example 251, N-[5-[4-[[(2R)-1-acetonylazetidin-2-yl]methoxy]-2-methyl-pyrazol-3-yl]pyrazolo[1,5-a]pyridin-2-yl]cyclopropanecarboxamide], inhibition was half-maximal at 45.6 nM (IC50).

For `CO[C@@H]1CN(C)C[C@@H]1Oc1cnn(C)c1-c1ccn2nc(NC(=O)C3CC3)cc2c1` (racemic) [Example 409, (rac-cis)-N-[5-[4-(4-methoxy-1-methyl-pyrrolidin-3-yl)oxy-2-methyl-pyrazol-3-yl]pyrazolo[1,5-a]pyridin-2-yl]cyclopropanecarboxamide], the IC50 was 170 nM.

For the compound `CN1CC[C@@H]1COc1cnn(C)c1-c1ccn2nc(Nc3ncc(F)cn3)cc2c1` [Example 395, N-(5-fluoropyrimidin-2-yl)-5-[2-methyl-4-[[(2R)-1-methylazetidin-2-yl]methoxy]pyrazol-3-yl]pyrazolo[1,5-a]pyridin-2-amine], the IC50 worked out at 97.5 nM.

With `Cc1onc(OC[C@@H](N)C2CC2)c1-c1ccn2nc(NC(=O)C3CC3)cc2c1` [Example 328, N-[5-[3-[(2S)-2-amino-2-cyclopropyl-ethoxy]-5-methyl-isoxazol-4-yl]pyrazolo[1,5-a]pyridin-2-yl]cyclopropanecarboxamide], the IC50 came to 61.8 nM.

Compound `Cc1onc(O[C@H]2CNC[C@@H]2F)c1-c1ccn2nc(NC(=O)C3CC3)cc2c1` [Example 82, N-[5-[3-[(3S,4S)-4-fluoropyrrolidin-3-yl]oxy-5-methyl-isoxazol-4-yl]pyrazolo[1,5-a]pyridin-2-yl]cyclopropanecarboxamide] gave an IC50 of 3950 nM.

Consider `Cc1cc(Nc2cc3cc(-c4c(OC[C@H]5CCCN5C)cnn4C)ccn3n2)ncn1` [Example 285, 5-[2-methyl-4-[[(2R)-1-methylpyrrolidin-2-yl]methoxy]pyrazol-3-yl]-N-(6-methylpyrimidin-4-yl)pyrazolo[1,5-a]pyridin-2-amine], for which the IC50 was found to be 18.5 nM.
